Read-outs that look alike come from different tables or passages of the source.
Tests used:
Format in all cases: biochemical
MMP-9 = target: T1, MMP-9 (Homo sapiens, UniProt P14780); assay: Automated MMP Profiling Assay, MMP-9 fluorogenic; conditions: for IC50: 96-well automated, P218
T1 construct: from tissue; host or cells: human polymorphonuclear leukocytes (PMN) from whole blood (New York Blood Center), PMA-stimulated supernatant

MMP-2 = target: T2, MMP-2 (Homo sapiens, UniProt P08253); assay: Automated MMP Profiling Assay, MMP-2 fluorogenic
T2 sequence (P08253 110-660): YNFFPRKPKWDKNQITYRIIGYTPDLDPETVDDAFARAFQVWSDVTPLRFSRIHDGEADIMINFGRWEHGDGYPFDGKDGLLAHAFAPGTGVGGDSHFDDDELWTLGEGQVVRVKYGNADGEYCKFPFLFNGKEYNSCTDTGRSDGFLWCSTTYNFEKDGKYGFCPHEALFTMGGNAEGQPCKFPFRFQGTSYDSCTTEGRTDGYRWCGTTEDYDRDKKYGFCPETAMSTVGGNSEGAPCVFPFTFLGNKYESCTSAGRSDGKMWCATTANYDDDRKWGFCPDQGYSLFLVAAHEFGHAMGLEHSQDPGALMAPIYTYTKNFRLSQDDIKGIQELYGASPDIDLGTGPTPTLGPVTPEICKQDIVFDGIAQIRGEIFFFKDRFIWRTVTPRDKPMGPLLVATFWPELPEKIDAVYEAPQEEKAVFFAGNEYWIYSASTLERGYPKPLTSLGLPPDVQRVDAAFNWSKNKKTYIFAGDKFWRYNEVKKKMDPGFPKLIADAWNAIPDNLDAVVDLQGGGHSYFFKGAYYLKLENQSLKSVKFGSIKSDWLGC

MMP-3 = target: T3, MMP-3 (Homo sapiens, UniProt P08254); assay: Automated MMP Profiling Assay, MMP-3 fluorogenic; conditions: for IC50: 96-well automated, P218
T3 construct: Truncated Prostromelysin-257 was expressed in a soluble form in E.coli; made in house; host or cells: E. coli
T3 sequence (P08254 100-274 limits assumed): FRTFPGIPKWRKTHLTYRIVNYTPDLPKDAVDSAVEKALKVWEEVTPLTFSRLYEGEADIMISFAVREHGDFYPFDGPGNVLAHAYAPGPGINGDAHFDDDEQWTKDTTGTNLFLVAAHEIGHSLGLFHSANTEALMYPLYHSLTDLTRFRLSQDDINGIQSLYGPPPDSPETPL
Description: This assay with each invention compound was run with the three enzymes MMP-3, MMP-9 and MMP-2 in parallel as adapted for a 96-well microtitre plate using a Hamilton A® workstation.

[1] = 96-well automated, P218, read-out: MMP-2 Fluorogenic IC50 (profiling)

T1 sequence (P14780 107-707 limits assumed): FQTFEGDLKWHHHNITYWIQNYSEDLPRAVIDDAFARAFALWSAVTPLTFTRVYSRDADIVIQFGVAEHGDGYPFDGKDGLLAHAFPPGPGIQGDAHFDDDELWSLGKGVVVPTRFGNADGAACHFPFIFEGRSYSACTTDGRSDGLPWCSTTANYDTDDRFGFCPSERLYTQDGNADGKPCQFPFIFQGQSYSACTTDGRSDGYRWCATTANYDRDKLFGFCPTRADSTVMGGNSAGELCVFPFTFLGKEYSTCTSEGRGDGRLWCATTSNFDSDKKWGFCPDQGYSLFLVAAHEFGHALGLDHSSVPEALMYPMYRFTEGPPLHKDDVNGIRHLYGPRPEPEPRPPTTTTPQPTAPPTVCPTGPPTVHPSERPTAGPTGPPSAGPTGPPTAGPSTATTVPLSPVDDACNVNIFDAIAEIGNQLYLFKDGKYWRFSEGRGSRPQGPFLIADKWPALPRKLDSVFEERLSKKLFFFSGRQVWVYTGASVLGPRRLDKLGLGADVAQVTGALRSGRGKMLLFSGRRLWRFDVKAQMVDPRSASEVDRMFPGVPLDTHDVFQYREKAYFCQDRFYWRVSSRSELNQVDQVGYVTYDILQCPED

Row | SMILES | IC50 (MMP-9) [nM] | IC50 (MMP-2) [nM] | IC50 (MMP-3) [nM] | inhibition at 5 µM (MMP-9) [%] | inhibition at 5 µM (MMP-2; at 5 μM) [%] | inhibition at 5 µM (MMP-3) [%] | IC50 (MMP-2; [1]) [nM]
1 | O=C(c1ccc(-c2ccc(Cl)cc2)cc1)[C@H]1CCN(C(=O)OCc2ccccc2)[C@@H]1C(=O)O [Example 166, 1,2-Pyrrolidinedicarboxylic acid, 3-[(4'-chloro[1,1'-biphenyl]-4-yl)carbonyl]-, 1-(phenylmethyl) ester, (2S-trans)-] | 381 | 35 | 103 | – | – | – | –
2 | O=C(c1ccc(-c2ccc(Cl)cc2)cc1)[C@@H]1CCN(C(=O)OCc2ccccc2)[C@H]1C(=O)O [Example 167, 1,2-Pyrrolidinedicarboxylic acid, 3-[(4'-chloro[1,1'-biphenyl]-4-yl)carbonyl],1-(phneylmethyl) ester, (2R-trans)-] | – | – | – | 23 | 31 | 18 | –
3 | O=C(c1ccc(-c2ccc(Cl)cc2)cc1)[C@H]1CCN(C(=O)NCc2ccccc2)[C@@H]1C(=O)O [Example 168, L-Proline, 3-[(4'-chloro[1,1'-biphenyl]-4-yl)carbonyl]-1-[[(phenylmethyl)amino]carbonyl]-, trans-] | 163 | – | 49 | – | – | – | 15
4 | O=C(c1ccc(-c2ccc(Cl)cc2)cc1)[C@H]1CCN(C(=O)CCc2ccccc2)[C@@H]1C(=O)O [Example 169, L-Proline, 3-[(4'-chloro[1,1'-biphenyl]-4-yl)carbonyl]-1-(1-oxo-3-phenylpropyl)-, trans-] | 1080 | – | 245 | – | – | – | 80
5 | O=C(c1ccc(-c2ccc(Cl)cc2)cc1)[C@H]1CCN(C(=O)Cc2ccccc2)[C@@H]1C(=O)O [Example 170, L-Proline, 3-[(4'-chloro[1,1'-biphenyl]-4-yl)carbonyl]-1-(phenylacetyl)-, trans-] | 1800 | – | 296 | – | – | – | 103
6 | CC(C)(C)CC(=O)N1CC[C@H](C(=O)c2ccc(-c3ccc(Cl)cc3)cc2)[C@H]1C(=O)O [Example 171, L-Proline, 3-[(4'-chloro[1,1'-biphenyl]-4-yl)carbonyl]-1-(3,3-dimethyl-1-oxobutyl)-, trans-] | 3520 | – | 663 | – | – | – | 452
7 | CC(C)COC(=O)N1CC[C@H](C(=O)c2ccc(-c3ccc(Cl)cc3)cc2)[C@H]1C(=O)O [Example 172, 1,2-PYrrolidinecarboxylic acid, 3-[(4'-chloro[1,1'-biphenyl]-4-yl)carbonyl]-, 1-(2-methylpropyl) ester, (2S-trans)-] | 1930 | – | 456 | – | – | – | 175
8 | O=C(c1ccc(-c2ccc(Cl)cc2)cc1)[C@H]1CCN(C(=O)Nc2ccccc2)[C@@H]1C(=O)O [Example 173, L-Proline, 3-[(4'-chloro[1,1'-biphenyl]-4-yl)carbonyl]-1-[(phenylamino)carbonyl]-, trans-] | 814 | – | 119 | – | – | – | 104
9 | O=C(CC(CCN1C(=O)c2ccccc2C1=O)C(=O)O)c1ccc(-c2ccc(Br)cc2)cc1 (stereo not drawn) [Example 270] | 1.6 | – | 6 | – | – | – | 1.4
10 | O=C(CC(CCN1C(=O)c2ccccc2C1=O)C(=O)O)c1ccc(-c2ccc(OCc3ccccc3)cc2)cc1 (stereo not drawn) [Example 271, 2H-Isoindole-2-butanoic acid, 1,3-dihydro-1,3-dioxo-α-[2-oxo-2-[4'-(phenylmethoxy)[1,1'-biphenyl]-4-yl]ethyl]-] | 7.9 | – | 5.2 | – | – | – | 1.4
11 | CCCCCOc1ccc(-c2ccc(C(=O)CC(CCN3C(=O)c4ccccc4C3=O)C(=O)O)cc2)cc1 (stereo not drawn) [Example 272] | 10.8 | – | 9.2 | – | – | – | 2.28
12 | CCOc1ccc(-c2ccc(C(=O)CC(CCN3C(=O)c4ccccc4C3=O)C(=O)O)cc2)cc1 (stereo not drawn) [Example 273, 2H-Isoindole-2-butanoic acid, α-[2-(4'-ethoxy[1,1'-biphenyl]-4-yl)-2-oxoethyl]-1,3-dihydro-1,3-dioxo-] | 1.25 | – | 21 | – | – | – | 2.27
13 | O=C(CC(CN1C(=O)c2ccccc2C1=O)C(=O)O)c1ccc(-c2ccc(Cl)cc2)cc1 (stereo not drawn) [Example 276, 2H-Isoindole-2-propanoic acid, α-[2-(4'-chloro[1,1'-biphenyl]-4-yl)-2-oxoethyl]-1,3-dihydro-1,3-dioxo-] | 275 | – | 262 | – | – | – | 39
14 | O=C(CC(CCNC(=O)c1ccccc1C(=O)O)C(=O)O)c1ccc(-c2ccc(Cl)cc2)cc1 (stereo not drawn) [Example 279, [1,1'-Biphenyl]-4-butanoic acid, α-[2-[(2-carboxybenzoyl)amino]ethyl]-4'-chloro-γ-oxo-] | 286 | – | 402 | – | – | – | 67
15 | COC(=O)c1ccccc1S[C@@H]1CC[C@@H](C(=O)c2ccc(-c3ccc(Cl)cc3)cc2)[C@@H]1C(=O)O [Example 300, (1R,2R,5R)-trans-5-[4-(4-chlorophenyl)phenylcarbonyl]-cis-2-(2-methoxycarbonylphenylthio)cyclopentanecarboxylic acid] | > 1250 | – | > 1250 | – | – | – | 2500
16 | O=C(c1ccc(-c2ccc(Cl)cc2)cc1)C1CCC(Sc2ccccc2)C1C(=O)O (stereo not drawn) [Example 312, Cyclopentanecarboxylic acid, 2-[(4'-chloro[1,1'-biphenyl]-4-yl)carbonyl]-5-(phenylthio)-, (1α,2β,5α)-] | 871 | – | 80 | – | – | – | 60
17 | O=C(C[C@H](CS(=O)(=O)c1ccccc1)C(=O)O)c1ccc(-c2ccc(Cl)cc2)cc1 [Example 314, [1,1'-Biphenyl]-4-butanoic acid, 4'-chloro-γ-oxo-α-[(phenylsulfonyl)methyl]-, (S)-] | 555 | – | 399 | – | – | – | 13
18 | CCCCCOc1ccc(-c2ccc(C(=O)[C@H]3CC[C@@H](Cc4ccccc4)[C@@H]3C(=O)O)cc2)cc1 [Example 324, Cyclopentanecarboxylic acid, 2-[[4'-(pentyloxy)[1,1'-biphenyl]-4-yl]carbonyl]-5-(phenylmethyl)-, [1S-(1α,2β,5β)]-] | 343 | – | 46 | – | – | – | 8.1
19 | CCCCCOc1ccc(-c2ccc(C(=O)[C@@H]3CC[C@H](Cc4ccccc4)[C@H]3C(=O)O)cc2)cc1 [Example 325, Cyclopentanecarboxylic acid, 2-[[4'-(pentyloxy)[1,1'-biphenyl]-4-yl]carbonyl]-5-(phenylmethyl)-, [1R-(1α,2β,5β)]-] | – | – | – | 0 | – | 10 | 4400
20 | C#Cc1ccc(-c2ccc(C(=O)CC(CCCc3ccccc3)C(=O)O)cc2)cc1 (stereo not drawn) [Example 351, [1,1'-Biphenyl]-4-butanoic acid, 4'-ethynyl-γ-oxo-α-(3-phenylpropyl)-] | 151 | – | 107 | – | – | – | 50
21 | CCCCC#Cc1ccc(-c2ccc(C(=O)CC(CCCc3ccccc3)C(=O)O)cc2)cc1 (stereo not drawn) [Example 352, [1,1'-Biphenyl]-4-butanoic acid, 4'-(1-hexynyl)-γ-oxo-α-(3-phenylpropyl)-] | 905 | – | 130 | – | – | – | 61
22 | COC/C=C/c1ccc(-c2ccc(C(=O)CC(CCCc3ccccc3)C(=O)O)cc2)cc1 (stereo not drawn) [Example 353, [1,1'-Biphenyl]-4-butanoic acid, 4'-(3-methoxy-1-propenyl)-γ-oxo-α-(3-phenylpropyl)-, (E)-] | 274 | – | 84 | – | – | – | 20
